According to patent publication EP0103895A2, “Novel hydroxylamine derivatives, production and use thereof” (MEIJI SEIKA KABUSHIKI KAISHA, priority 1982, dated 1984):
“And” between values parts separate entries of the source, which are not always exact repeats. Equal values may be shown once.

Columns and labels:
[1] = test system: canine hookworm (Ancylostoma caninum); assay: Anthelmintic test in naturally infected dogs with mixed infections, E.P.G. on 7th day: canine hookworm (Test Examples A3, B3, C3, D3); type: in vivo; settings: dogs, 30 mg/Kg orally once, one value per dog
Description: (§1) Three dogs with mixed infections by canine whipworm (Trichuris vulpis), canine hookworm (Ancylostoma caninum) and canine roundworm (Toxocara canis) (naturally infected dogs) were employed in a group of two and a group of one.
(§2) The compound provided for the test was Compound No.Al, and 20 mg/Kg thereof was placed in a gelatin capsule per 1 Kg of body weight, and administered orally to the two dogs. As control, only a gelatin capsule was administered orally to the one dog.
(§3) Before administration and on the 7th day after administration, fecal matter testing was conducted to calculate the E.P.G., and the anthelmintic effect was judged by the changing of the E.P.G. to negative.
(§4) As control, only gelatin capsules were administered orally to the one dog.
(§5) The same method as in Test Example A3, but the compound provided for the test was Compound No. Cl. 30 mg/Kg of this compound was placed in a gelatin capsule per 1 Kg of body weight and administered orally to the two dogs. As control, only gelatin capsules were administered orally to the one dog.

[2] = test system: Liver fluke; Fasciola hepatica (F. hepatica); assay: Test of anthelmintic effect against rat infected experimentally with liver fluke (Test Examples A11, B11, C11, D11); type: in vivo
[3] = test system: canine roundworm (Toxocara canis); assay: Anthelmintic test in naturally infected dogs with mixed infections, E.P.G. on 7th day: canine roundworm (Test Examples A3, B3, C3, D3); type: in vivo; settings: dogs, 30 mg/Kg orally once, one value per dog
Description: as §1, §2, §3, §4, §5

[4] = test system: swine Oesophagostomum (Oesophagostomum dentatum); assay: Test of anthelmintic effect against swine Oesophagostomum in naturally infected pigs, E.P.G. on 7th day (Test Examples A8, B8, C8, D8); type: in vivo; settings: pigs
Description: Six pigs infected with swine Oesophagostomum (naturally infected pigs) were employed by grouping them into groups each of two pigs.
As a control, only gelatin capsules were administered orally to the two pigs.
as §3

[5] = test system: fowl roundworm (Ascaridia galli); assay: Anthelmintic test in chickens artificially infected with fowl roundworm, single oral dose in gelatin capsule, worm bodies counted within 48 hours (Test Examples A1, B1, C1, D1); type: in vivo; settings: Ascaridia galli, po, 48 h, chickens, one value per chicken (No.1-3), read-out: Anthelmintic effect after 48 hours
Outline: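 Groups of three chickens with confirmed Ascaridia galli infection given a single oral dose in gelatin capsule (10 and 20 mg/kg in A1 and B1; 30 and 50 mg/kg in C1; 15 and 30 mg/kg in D1). Worms expelled over 48 h and those remaining in the gut at necropsy counted to give anthelmintic percentage.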

[6] = test system: stomach worm (Haemonchus controtus); assay: Anthelmintic test against cow stomach worm in naturally infected cows, E.P.G. on 7th day (Test Examples A6, B6, C6, D6); type: in vivo; settings: cows
Description: Three cows infected with stomach worm (naturally infected cows) were employed by grouping them into a group of two and a group of one.
(§6) As control, only gelatin capsules were administered orally to the one cow.
as §3, §6, §6

[7] = test system: canine whipworm (Trichuris vulpis); assay: Anthelmintic test in naturally infected dogs with mixed infections, E.P.G. on 7th day: canine whipworm (Test Examples A3, B3, C3, D3); type: in vivo
Description: as §1, §2, §3, §4, §5

[8] = test system: Diphyllobothrium erinacei; assay: Test of anthelmintic effect against Diphyllobothrium erinacei (tapeworm) in experimentally infected cats (Test Examples A5, B5, C5, D5)
[9] = test system: fowl roundworm (As. galli); assay: Anthelmintic test in chickens artificially infected with fowl roundworm, compound added to feed, E.P.G. and worm count up to 21st day (Test Examples A2, B2, C2, D2); type: in vivo, Ascaridia galli; settings: Ascaridia galli, po, 504 h, chickens, worm count on 21st day, one value per chicken, read-out: Anthelmintic effect

In the case of `C=CCN(OC)C(C)=O` [Compound B1, N-allyl-N-acetyl-O-methylhydroxylamine], the “Change of E.P.G. Before administration” value ([1]; baseline, 30 mg/kg) is reported as 4,500 E.P.G. and 8,700 E.P.G, the “Change of E.P.G. 7th day” value [1] is reported as 0 E.P.G and the “Condition of fluke body” value ([2]; rat, 50 mg/Kg x 5) is reported as “dead”. The “Presence or absence of fluke egg in fecal matter On 21st day after the last administration” value ([2]; rat, 50 mg/Kg x 5) was “-”, the “anthelmintic effect” value ([2]; rats, five administrations in a dose of 50 mg/Kg each) was “marked antihelmintic effect” and the “Change of E.P.G. Before administration” value ([3]; baseline, 30 mg/kg) was 6,100 E.P.G. and 3,200 E.P.G. The “Change of E.P.G. 7th day” value [3] was 0 E.P.G, the “Change of E.P.G. Before administration” value ([4]; 20 mg/Kg orally once, baseline, one value per pig, 20 mg/kg) was 1,200 E.P.G. and 2,600 E.P.G and the “Change of E.P.G. 7th day” value ([4]; 20 mg/Kg orally once, one value per pig) was 0 E.P.G. For the same molecule, the “anthelmintic effect” value ([4]; one administration of 20 mg/Kg) was “marked anthelmintic effect”, the inhibition in vivo at 30 mg/kg ([5]; 30 mg/Kg orally in gelatin capsule) was 100% and the inhibition in vivo at 50 mg/kg ([5]; 50 mg/Kg orally in gelatin capsule) was 100%. For the same molecule, the “Change of E.P.G. Before administration” value ([6]; 20 mg/Kg orally once, baseline, one value per cow, 20 mg/kg) was 2,500 E.P.G. and 3,300 E.P.G, the “Change of E.P.G. 7th day” value ([6]; 20 mg/Kg orally once, one value per cow) was 0 E.P.G and the “anthelmintic effect” value ([6]; one administration of 20 mg/Kg) was “marked anthelmintic effect”. For the same molecule, the “anthelmintic effect” value ([7]; dogs with mixed infections (Trichuris vulpis, Ancylostoma caninum, Toxocara canis; statement covers all three), one administration of 30 mg/Kg) was “marked anthelmintic effect”, the “Change of E.P.G. Before administration” value ([7]; dogs, 30 mg/Kg orally once, Trichuris vulpis, baseline, one value per dog, 30 mg/kg) was 5,100 E.P.G. and 2,700 E.P.G and the “Change of E.P.G. 7th day” value ([7]; dogs, 30 mg/Kg orally once, Trichuris vulpis, one value per dog) was 0 E.P.G. The “Number of worm bodies remaining in enteron” value ([8]; cats infected with 5 plerocercoids, 50 mg/Kg x 5 times orally, autopsy ten days after administration, one value per cat) was 0, the “Worm egg detection on 10th day after administration” value ([8]; cats, 50 mg/Kg x 5 orally, one value per cat (Table B7)) was “-” and the “anthelmintic effect” value ([8]; cats, 5 continuous administrations of 50 mg/Kg) was “marked anthelmintic effects”. It also gave an inhibition in vivo at 20 ppm ([9]; 20 ppm added to feed) of 80 to 90% and an inhibition in vivo at 50 ppm ([9]; 50 ppm added to feed) of 100%.
